Values quoted from earlier work, collected in patent US6436889B1, “Detergent compositions” (Unilever Home & Personal Care USA division of Conopco, Inc., priority 1999, dated 2002).
Like-named read-outs stand apart in the source and are kept apart here.

[1] = at 20° C., other common materials

Structure (SMILES)	Water Solubility [1] [g/100 g]	Water Solubility (grams of solid required to form a saturated solution in 100 grams of water at 20° C., highly water-soluble materials) [g/100 g]
O=BO[O-].[Na+] [Sodium perborate anhydrous]	3.7	
O=P(O)(O)OP(=O)(O)OP(=O)(O)O [Sodium tripolyphosphate anhydrous]	15	
NC(N)=O [Urea]		>100
